Structure (SMILES)	melting point [°C]
Cc1nnc2n1-c1ccc(Cl)cc1C(c1ccccc1)S2 (stereo not drawn)	237
O=C(O)CCc1cn(Cc2ccc(OCc3cccs3)cc2)cc1-c1ccccc1	127 to 128
O=C1SC(Cc2ccc(OCCn3ccc4ccccc43)cc2)C(=O)N1C(c1ccccc1)(c1ccccc1)c1ccccc1 (stereo not drawn)	63.5 to 65.9
CC(CNc1ccc(C(=O)O)cc1)Oc1ccccc1 (stereo not drawn)	140 to 144
CN(C)c1ccc2nnc(C(=O)O)c(O)c2c1	> 330
COC(=O)Nc1cccc(C(=O)OC)c1NCc1ccc(-c2ccccc2C#N)cc1	113 to 115
CC(O)(CSc1ccc(S(=O)(=O)c2ccccc2)cc1)C(F)(F)F (stereo not drawn)	100 to 102
C=CCC(F)(F)C(O)C(CC(C)C)NC(=O)c1ccccc1 (stereo not drawn)	110
COc1ccc(CON(CCCBr)S(=O)(=O)c2ccc(C)cc2)cc1	89.5 to 91.5
CCCCCCCCCCCCCCCc1c([N+](=O)[O-])cc([N+](=O)[O-])c(O)c1[N+](=O)[O-]	53 to 56
CN(C)c1cc(Oc2cccc(C(F)(F)F)c2)nc(C(=O)Nc2ccccc2)c1	135 to 138
COc1ccc2nc3cc(OC)c(=O)cc-3sc2c1	237 to 238
CC(=O)OC1CSC(Oc2cnccc2-c2c(C)noc2C)C(OC(C)=O)C1OC(C)=O (stereo not drawn)	150 to 155
COc1ccc(NC(=O)OCCCl)c(OC)c1NC(=O)OCCCl	105
CS(=O)(=O)c1cccc(S(C)(=O)=O)n1	192 to 195
COc1c(C)c(C)c(OC)c(CO)c1C	121 to 122
CC(=O)c1ccc(OCCC2CCN(c3cc(Cl)nnc3Cl)CC2)cc1	99 to 100
CCc1cccc(CC)c1NC(=O)C1c2ccccc2COc2ccc(Br)cc21 (stereo not drawn)	234 to 235
Cc1c(-c2ccc(OCc3ccccc3)cc2)n(Cc2ccc(OCCN3C[C@@H]4CC[C@H]3C4)cc2)c2ccc(OCc3ccccc3)cc12	95 to 100
CCCCNc1ncnc2c1ncn2CCCN1CCC(NC(=O)c2ccccc2)CC1	190 to 192
COc1cc(N)c2nc(Cl)cc(C)c2c1Oc1cccc(C(F)(F)F)c1	133 to 135
N=C(N)N(CCCCc1ccc(OCC(=O)Nc2ccccc2)cc1)C(=O)c1nc(Cl)c(N)nc1N	168 to 170
O=C(CCCl)N1CCc2ccc([N+](=O)[O-])cc21	127 to 128
CC(C)(C)c1ccc(C(O)(c2ccc(Cl)cc2)c2ncc[nH]2)cc1 (stereo not drawn)	95 to 110
COC(=O)c1ccc2[nH]cc(CCCCN3CCN(c4ccccc4OC)CC3)c2c1	195 to 196

Structure (SMILES)	melting point [°C]
CCCCc1nc2c(=O)[nH]ccc2n1Cc1ccc(-c2ccccc2C#N)cc1	179
CC(=O)N(C)c1cc2c(nc(C)n2C)c2c1CCC(c1ccccc1)O2 (stereo not drawn)	214 to 216
COc1cc(OCC(CO)CO)c(C=CC(=O)c2ccc(S(N)(=O)=O)cc2)cc1-c1cccs1	123 to 124
CCCCc1c(C(=O)c2ccc(OCCCN(CCCC)CCCC)cc2)[nH]c2ccc([N+](=O)[O-])cc12	80
O=C(c1ccncc1)c1cc(Br)cc(Br)c1	89 to 92
COC(=O)CNC(C)=S	78 to 79
CC(C)(C)OC(=O)N1CCC(CC(O)c2c3c(nn2-c2ccccc2)c(=O)[nH]c2ccccc23)CC1 (stereo not drawn)	253 to 254
NC(=NO)c1ccc(C(F)(F)F)cn1	130 to 133
CC1(C)CC(=O)C(C(=S)Nc2ccc(Cl)c(C(F)(F)F)c2)C(=O)C1	101 to 102
O=C1c2ccccc2C(=O)N1CCCC(O)CF (stereo not drawn)	85
Cc1cc(C)c2c(c1O)C(NC(=O)CN1CCN(c3cccc(Cl)c3)CC1)C(C)(C)C2 (stereo not drawn)	125 to 126
NS(=O)(=O)c1ccc(NC(=O)c2ccc(F)cc2SSc2cc(F)ccc2C(=O)Nc2ccc(S(N)(=O)=O)cc2)cc1	309 to 310
O=C1C=C(c2ccccc2)C(=Nc2ccccc2)N1	180 to 183
CCc1nnc(-c2ccc(OC)cc2)c(-c2ccc(OC)cc2)n1	73 to 75.5
CC(C)(CNCCCCCCNCC(C)(C)[N+](=O)[O-])[N+](=O)[O-]	26 to 27
O=c1c2ccccc2n(SC(Cl)(Cl)Cl)c(=O)n1SC(Cl)(Cl)Cl	154 to 156
COc1ccc(-c2coc3ccc(-c4nnc(SCc5cccc(C)c5)o4)cc23)cc1	123 to 124
C=CCN1c2ccccc2-c2noc3c2C1CCC3 (stereo not drawn)	114 to 117
CCC(CC)c1ccc(Cl)c2nc3n(c12)CCCCN3c1cnc(N2CCCC2)cc1C	160 to 161
CCOC(=O)C1=CC(=O)CC(c2ccc(Cl)c(OC)c2F)N1 (stereo not drawn)	116 to 118
COc1ccc(CN2C(=O)C3CC(c4ccc([N+](=O)[O-])cc4)(C3)C2=O)cc1	146 to 147
CCON=C(CC)C1=C(O)CC(c2cc3c(cc2[N+](=O)[O-])OCO3)CC1=O (stereo not drawn)	122
CCOC(=O)c1c(N2CCN(C(=O)c3cccs3)CC2)c2cccnc2n(CCCN(C)C)c1=O	84 to 94
CCOC(=O)Nc1nc(=O)n(CC2CC2)cc1F	90 to 92
CC(C(=O)O)c1ccc(C(C)(C)C)cc1 (stereo not drawn)	101 to 103

Structure (SMILES)	melting point [°C]
CC1(C)CC(Oc2nc(Cl)nc(N3C(C)(C)CCCC3(C)C)n2)CC(C)(C)N1O	152 to 153
COC(=O)c1ccc(-c2cc(C)c3[nH]c(=O)ccc3c2)cc1	293
COc1cccc([C@H]2O[C@H](CC(=O)Nc3cccc(CCC(=O)O)c3)C(=O)N(CC(C)(C)CO)c3ccc(Cl)cc32)c1OC	141 to 144
COc1ccc(N2CCOCC2)c2sc(C#N)nc12	145 to 147
S=c1oc2ccccc2o1	151 to 153
Fc1cccc2c(NCCc3cccs3)ccnc12	157 to 158
CCCCCCCCCCCCCCCCCC(=O)NC(=O)OCc1nc(C(C)C)c(Sc2cc(Cl)cc(Cl)c2)n1Cc1ccncc1	73 to 77
CCOC(=O)c1nc2cc(C(C(C)C)n3ccnc3)ccc2[nH]c1=O (stereo not drawn)	230
CCC(=O)NC1CCc2cc(OC)ccc2C1 (stereo not drawn)	125
CC(CC(=O)Nc1c(Cl)ccc2nc(N3CCC(NCCCO)C3)ccc12)c1ccccc1 (stereo not drawn)	155 to 158
Nc1ccc(CN2CCN(Cc3ccc(N)cc3)C(=O)C2=O)cc1	193 to 194
Cc1nc(C=O)c2n1-c1ccc(Cl)cc1C(c1ccccc1Cl)=NC2	237 to 239
CN(c1nc(=O)n(C)cc1F)S(=O)(=O)Cc1ccccc1	159 to 160
CCN1C(=S)NNC1c1ccccc1NC(C)=O (stereo not drawn)	193 to 194
CC(C(=O)O)c1ccc2oc(N)nc2c1 (stereo not drawn)	225 to 229
O=C1CC2(CC=CC2)CC(=O)N1	150 to 153
C[C@@H]1CC(=O)O[C@H](CCc2ccccc2)O1	49.7 to 50.9
COc1ccc(CO)cc1OCc1nc(-c2ccco2)oc1C	145 to 146
CC(C)C[C@H](NC(=O)c1ccc2c(c1)Nc1ccccc1S2)C(=O)N[C@H]1CCOC1OC(=O)c1ccccc1 (stereo partly drawn)	193 to 195
Cc1ccc(Cl)cc1NC(=S)Nc1c(C)nn(C)c1C	176 to 177
Cc1ccc(Cn2nnc(C(N)=O)c2N)cc1	223 to 225
CCCn1nnn(-c2ccc(N3CCN(c4ccc(OC)cc4)CC3)cc2)c1=O	190
CCCC[C@@](C)(O)C(=O)O	67.8 to 67.9
COc1ccc2nc(-c3ccc(OC)c(F)c3)cc(Cl)c2c1	112 to 116
CCCCCCCCCCCCCCCCCC(=O)N1CCN(c2cc(N3CCCC3)nc(N3CCCC3)n2)CC1	102 to 104

Structure (SMILES)	melting point [°C]
CC(C)(C)C(=O)Nc1cc(Cl)ccn1	86 to 87
CCOC(=O)N1CCC(n2cnc3ccc(-c4nnc(C)o4)cc32)CC1	179 to 180
CC(C)(C)NC(=O)N1CCn2c(Br)c(-c3cccc(F)c3)c(C(N)=O)c2C1	184 to 189
Cc1c(C(=O)Nc2ccc(N3CCN(c4ccc(Cl)cc4)CC3)c(C#N)c2)cnn1-c1ccc(Cl)cc1	265
Nc1cc(C(=O)O)nn1-c1c(Cl)cc(C(F)(F)F)cc1Cl	213
O=[N+]([O-])c1ccc(SC2SCC(O)C(O)C2O)cc1 (stereo not drawn)	168
CN1CCN(c2nc3ccccc3n2CCOc2ccccc2)CC1	152 to 154
Cc1nc(Cl)c(C#N)cc1-c1ccccc1	134 to 135
COc1ccc2c(c1)c(CCO)c(C)n2-c1ncnc2cc(Cl)ccc12	148 to 150
O=C1N(CC2CCC2)c2ccccc2C1(O)c1ccc2c(c1)OCO2 (stereo not drawn)	124 to 125
Cc1ccc(C=Nc2c(-c3ccccc3C)nc3c4ccccc4ccn23)cc1	160
CN1C(C)(C)CC(OP2OCC3(CO2)COP(OC2CC(C)(C)N(C)C(C)(C)C2)OC3)CC1(C)C (stereo not drawn)	106
COC(=O)[C@@H]1C[C@H](OC(=O)C(C)C)C(=O)[C@H]2[C@@]1(C)CC[C@H]1C(=O)O[C@H](c3ccoc3)C[C@]21C	155 to 157
NS(=O)(=O)c1cnc(NC(=O)c2cnn3c(C(F)F)cc(-c4ccc(C(F)(F)F)cc4)nc23)s1	311
CC(=O)c1ccc2c(c1)CCc1ccc(C(=O)O)cc1S2	230 to 232
CC1(C)CCC(C)(C)c2cc(CC#Cc3ccc(C(=O)O)c(O)c3)c(O)cc21	216 to 217
COc1ccccc1CNc1cccnc1-c1ccccc1	122 to 125
CCCCCCN1C(=O)C(=CC(=O)O)SC1=Nc1cccc2ccccc12	144 to 145
CC(=O)NC1CCCC1CC(Cl)C#N (stereo not drawn)	114 to 117
CC(C)(CC(C)(Sc1cc(C(C)(C)C)c(O)c(C(C)(C)C)c1)Sc1cc(C(C)(C)C)c(O)c(C(C)(C)C)c1)Sc1cc(C(C)(C)C)c(O)c(C(C)(C)C)c1	93 to 115
O=[N+]([O-])C12C3C4C1C1(Cl)C2C3C41[N+](=O)[O-] (stereo not drawn)	145 to 147
O=C(O)c1cc2c3ccccc3n(-c3ccccc3)c2s1	206 to 207
CC(=O)Oc1cccc(-c2nc(=O)n(C(C)C)c3cc(C)ccc23)c1	148 to 150

From a melting point compilation (Tetko et al.; mined from patent text by program, amines drawn as free bases though some values may be those of a salt)
